In US11130741B2 (Bioimics AB, priority 2016, dated 2021):
≈ marks a conversion by molar mass, not a printed value. Where a name gives a salt, the structure may show the parent alone. Read-outs that look alike come from different tables or passages of the source.

Key:
[1] = tested on: E. coli RNase P RNA, M1 RNA; test: Inhibition of bacterial RNase P activity, IC50 determination (cleavage of pATSerUG by M1 RNA); type: biochemical; settings: NI = No inhibition
[2] = tested on: Escherichia coli (ATCC25922); test: MIC, broth microdilution (CLSI), Escherichia coli ATCC25922
[3] = tested on: Staphylococcus aureus subsp. aureus (ATCC29213); test: MIC, broth microdilution (CLSI), Staphylococcus aureus subsp. aureus ATCC29213; type: cell-based; settings: ATCC29213, Table 15, read-out: S. aureus ("wound") (MIC)
[4] = ATCC25922, read-out: E. coli MIC, Table 15, NI = No inhibition

Structure (SMILES)	IC50 [1] [µM]	MIC [2, 4] [µg/mL]	MIC [3] [µg/mL]	MIC ([2]; ATCC25922, read-out: E. coli MIC) [µg/mL]
Cl.Cl.NCCN(CCN)CCN1CCC(Nc2cc(C(F)(F)F)cc3c2Nc2ccc(Br)cc2S3)CC1 [compound 331, N1-(2-aminoethyl)-N1-(2-(4-((7-bromo-3-(trifluoromethyl)-10H-phenothiazin-1-yl)amino)piperidin-1-yl)ethyl)ethane-1,2-diamine hydrochloride]	5.1	8	4	–
CCOC(=O)c1ccc2c(c1)Sc1cc(-c3cc4ccccc4[nH]3)ccc1N2CCCN [compound 258, ethyl 10-(3-aminopropyl)-7-(1H-indol-2-yl)-10H-phenothiazine-3-carboxylate]	24	128 (≈ 289 µM)	2 (≈ 4.51 µM)	–
Cl.Cl.NC1CCCC(C(=O)Nc2cc(C(F)(F)F)cc3c2Nc2ccc(Br)cc2S3)C1 (stereo not drawn) [compound 312, 3-amino-N-(7-bromo-3-(trifluoromethyl)-10H-phenothiazin-1-yl)cyclohexane-1-carboxamide hydrochloride]	12	16	2	–
CN(C)C1CCN(c2ccc3c(c2)Sc2cc(C(F)(F)F)cc(NC4CCN(CCN)CC4)c2N3)C1.Cl.Cl (stereo not drawn) [compound 299, N-(1-(2-aminoethyl)piperidin-4-yl)-7-(3-(dimethylamino)pyrrolidin-1-yl)-3-(trifluoromethyl)-10H-phenothiazin-1-amine hydrochloride]	6.8	32	8	–
Cl.NCCNCCCNc1cc(C(F)(F)F)cc2c1Nc1ccccc1S2 [compound 297, N1-(2-aminoethyl)-N3-(3-(trifluoromethyl)-10H-phenothiazin-1-yl)propane-1,3-diamine hydrochloride]	43	32	16	–
NCCCN1c2ccc(N3CCN(CCN)CC3)cc2Sc2cc(C(F)(F)F)ccc21 [compound 266, 3-(3-(4-(2-aminoethyl)piperazin-1-yl)-7-(trifluoromethyl)-10H-phenothiazin-10-yl)propan-1-amine hydrochloride]	31	–	16	64
CN(C)C1CCN(c2ccc3c(c2)Sc2cc(C(F)(F)F)cc(NC4CCN(CCN)CC4)c2N3)CC1.Cl.Cl [compound 295, N-(1-(2-aminoethyl)piperidin-4-yl)-7-(4-(dimethylamino)piperidin-1-yl)-3-(trifluoromethyl)-10H-phenothiazin-1-amine hydrochloride]	21	128	32	–
Cl.Cl.NCCN1CCC(Nc2cc(C(F)(F)F)cc3c2Nc2ccc(C(=O)N4CCCC4)cc2S3)CC1 [compound 293, (9-((1-(2-aminoethyl)piperidin-4-yl)amino)-7-(trifluoromethyl)-10H-phenothiazin-3-yl)(pyrrolidin-1-yl)methanone hydrochloride]	62	16	8	–
NCCN1CCC(Nc2cc(C(F)(F)F)cc3c2Nc2ncccc2S3)CC1 [compound 268, N-(1-(2-aminoethyl)piperidin-4-yl)-7-(trifluoromethyl)-10H-benzo[b] pyrido[2,3-e] [1,4]thiazin-9-amine]	31	4 (≈ 9.77 µM)	8 (≈ 19.5 µM)	–
Cl.NCCN1CCC(Nc2cc(C(F)(F)F)cc3c2Nc2ccc(N4CC5(CCC5)C4)cc2S3)CC1 [compound 325, N-(1-(2-aminoethyl)piperidin-4-yl)-7-(2-azaspiro [3.3]heptan-2-yl)-3-(trifluoromethyl)-10H-phenothiazin-1-amine hydrochloride]	6.4	8	2	–
CC1(C)CCN(c2ccc3c(c2)Sc2cc(C(F)(F)F)cc(NC4CCN(CCN)CC4)c2N3)C1.Cl [compound 332, N-(1-(2-aminoethyl)piperidin-4-yl)-7-(3,3-dimethyl-pyrrolidin-1-yl)-3-(trifluoromethyl)-10H-phenothiazin-1-amine hydrochloride]	4.1	8	1	–
